Columns and labels:
C3H/HeN mice [1] = test: Telogen Conversion Assay; format: in vivo; settings: for Results: number of days following initiation of treatment when hair growth appeared in 50% of the mice: topical once daily for 5 days
Source text: The Telogen Conversion Assay measures the potential of a compound (hereinafter referred to as the “test compound”) to convert mice in the resting stage of the hair growth cycle (“telogen”) to the active stage of the hair growth cycle (“anagen”). This assay takes advantage of the fact that the fur (i.e. hair) of 40-day-old C3H/HeN mice is in the telogen phase. This phase usually continues until about 75 days of age, at which point, anagen naturally occurs in these animals. In this assay, selected areas of 40-day-old mice (approximate) are shaved, contacted with a test agent, or a control, and the difference in the rate of hair growth is measured (i.e. induction of the anagen phase). The first sign of anagen is the darkening of skin color as melanocytes in the follicles start to synthesize melanin, in preparation for the production of pigmented hairs.
Female C3H/HeN mice, 7 weeks old (Charles River Laboratories, Raleigh, N.C.) were used for the study. Fur was clipped from the dorsal region of the mice prior to initiation of the study. Only mice with pink skin, a visual indication of the telogen phase, were selected for inclusion in the study.
Test compounds (from Table A) were dissolved in a vehicle consisting of propylene glycol (30%) and ethanol (70%). A test compound dissolved in vehicle, or a vehicle control (30/70 propylene glycol/ethanol, unless otherwise specified) was applied topically to the clipped dorsal region of the mice in each test group (7-10 mice) in a volume of 20 μl/cm^2. Treatments were applied once daily for 5 days.
The treatment area was observed and graded for signs of hair growth. The hair growth response was quantified by recording, for each animal, the day on which signs of hair growth first appeared over the treated area. The first sign of anagen was the darkening of skin color as melanocytes in the follicles started to synthesize melanin. The response time was measured as the number of days between initiation of treatment and when hair growth was present in 50% of the mice in a given group.
The results are reported as the number of days following initiation of treatment when hair growth appeared in 50% of the mice in a given group.

C3H/HeN mice [2] = test: Telogen Conversion Assay; format: in vivo; settings: Experiment 8; for Results: number of days following initiation of treatment when hair growth appeared in 50% of the mice: topical once daily for 5 days, solvent polyethylene glycol 30 v/v %, ethanol 30 v/v %, transcutanol 40 v/v %, vehicle 28; for Induction of anagen (conclusion in words): transcutol, ethanol, polypropylene glycol vehicle
[3] = Experiment 9, 0.03 w/v %, propylene glycol 30%/ethanol 70%, terminated early
[4] = Experiment 9, 0.3 w/v %, propylene glycol 30%/ethanol 70%, terminated early
[5] = Experiment 9, 1.0 w/v %, propylene glycol 30%/ethanol 70%, terminated early
[6] = Experiment 10, 0.1 w/v %, propylene glycol 30%/ethanol 70%, terminated early
[7] = Experiment 10, 0.3 w/v %, propylene glycol 30%/ethanol 70%, terminated early
[8] = Experiment 15, 0.3 w/v %, propylene glycol 30%/ethanol 70%, vehicle >30
[9] = Experiment 15, 1.0 w/v %, propylene glycol 30%/ethanol 70%, vehicle >30
[10] = Experiment 15, terminated early

## Cn1nc(O[C@@H]2c3cc(S(=O)(=O)c4cccc(O)c4)ccc3OC(C)(C)[C@@]2(C)O)ccc1=O [Compound #1, (3S,4R)-3,4-dihydro-4-(2,3-dihydro-2-methyl-3-oxopyridazin-6-yl)oxy-3-hydroxy-6-(3-hydroxyphenyl)sulphonyl-2,2,3-trimethyl-2H-benzo[b]pyran]
C3H/HeN mice [1]; 15 experiments, compared with the other potassium channel openers of Table A
  Relative efficacy in the telogen conversion assay (summary): showed the highest relative efficacy in the model
C3H/HeN mice [1]; Experiment 1, 1.0 w/v %, propylene glycol 30%/ethanol 70%, terminated early
  Results: number of days following initiation of treatment when hair growth appeared in 50% of the mice: >35 days
C3H/HeN mice [1]; Experiment 2
  Induction of anagen (conclusion in words): exhibited signs of anagen sooner than those receiving Compound #6
C3H/HeN mice [1]; Experiment 2, 0.3 w/v %, propylene glycol 30%/ethanol 70%, vehicle 25
  Results: number of days following initiation of treatment when hair growth appeared in 50% of the mice: 11 days
C3H/HeN mice [1]; Experiment 2, 1.0 w/v %, propylene glycol 30%/ethanol 70%, vehicle 25
  Results: number of days following initiation of treatment when hair growth appeared in 50% of the mice: 11 days
C3H/HeN mice [1]; Experiment 3, 0.1 w/v %, propylene glycol 30%/ethanol 70%, terminated early
  Results: number of days following initiation of treatment when hair growth appeared in 50% of the mice: >35 days
C3H/HeN mice [1]; Experiment 3, 0.3 w/v %, propylene glycol 30%/ethanol 70%, terminated early
  Results: number of days following initiation of treatment when hair growth appeared in 50% of the mice: >35 days
C3H/HeN mice [1]; Experiment 3, 1.0 w/v %, propylene glycol 30%/ethanol 70%, terminated early
  Results: number of days following initiation of treatment when hair growth appeared in 50% of the mice: >35 days
C3H/HeN mice [1]; Experiment 4, 0.3 w/v %, propylene glycol 30%/ethanol 70%, vehicle >33
  Results: number of days following initiation of treatment when hair growth appeared in 50% of the mice: 26 days
C3H/HeN mice [1]; Experiment 4, 1.0 w/v %, propylene glycol 30%/ethanol 70%, vehicle >33
  Results: number of days following initiation of treatment when hair growth appeared in 50% of the mice: 26 days
C3H/HeN mice [1]; Experiment 4, terminated early
  Induction of anagen (conclusion in words): induced anagen at each of the test concentrations
C3H/HeN mice [1]; Experiment 5, 0.03 w/v %, propylene glycol 30%/ethanol 70%, vehicle >35
  Results: number of days following initiation of treatment when hair growth appeared in 50% of the mice: >35 days
C3H/HeN mice [1]; Experiment 5, 0.1 w/v %, propylene glycol 30%/ethanol 70%, vehicle >35
  Results: number of days following initiation of treatment when hair growth appeared in 50% of the mice: >35 days
C3H/HeN mice [1]; Experiment 5, 0.3 w/v %, propylene glycol 30%/ethanol 70%, vehicle >35
  Results: number of days following initiation of treatment when hair growth appeared in 50% of the mice: >35 days
C3H/HeN mice [1]; Experiment 6, 0.003 w/v %, propylene glycol 30%/ethanol 70%, vehicle >35
  Results: number of days following initiation of treatment when hair growth appeared in 50% of the mice: >35 days
C3H/HeN mice [1]; Experiment 6, 0.03 w/v %, propylene glycol 30%/ethanol 70%, vehicle >35
  Results: number of days following initiation of treatment when hair growth appeared in 50% of the mice: >35 days
C3H/HeN mice [1]; Experiment 6, 0.3 w/v %, propylene glycol 30%/ethanol 70%, vehicle >35
  Results: number of days following initiation of treatment when hair growth appeared in 50% of the mice: 28 days
C3H/HeN mice [1]; Experiment 6, terminated early, up to day 35
  Induction of anagen (conclusion in words): induced anagen despite the early termination of the experiment
C3H/HeN mice [1]; Experiment 7, 0.003 w/v %, propylene glycol 30%/ethanol 70%, vehicle 29
  Results: number of days following initiation of treatment when hair growth appeared in 50% of the mice: 26 days
C3H/HeN mice [1]; Experiment 7, 0.03 w/v %, propylene glycol 30%/ethanol 70%, vehicle 29
  Results: number of days following initiation of treatment when hair growth appeared in 50% of the mice: 24 days
C3H/HeN mice [1]; Experiment 7, 0.3 w/v %, propylene glycol 30%/ethanol 70%, vehicle 29
  Results: number of days following initiation of treatment when hair growth appeared in 50% of the mice: 19 days
C3H/HeN mice [1]; Experiment 7, proceeded to completion
  Induction of anagen (conclusion in words): induced anagen at all of the concentrations tested
C3H/HeN mice [1]; Experiment 8, 1.0 w/v %, propylene glycol 30%/ethanol 70%, vehicle >35
  Results: number of days following initiation of treatment when hair growth appeared in 50% of the mice: 18 days
C3H/HeN mice [1]; [3]
  Results: number of days following initiation of treatment when hair growth appeared in 50% of the mice: >33 days
C3H/HeN mice [1]; [4]
  Results: number of days following initiation of treatment when hair growth appeared in 50% of the mice: >33 days
C3H/HeN mice [1]; [5]
  Results: number of days following initiation of treatment when hair growth appeared in 50% of the mice: >33 days
C3H/HeN mice [1]; [6]
  Results: number of days following initiation of treatment when hair growth appeared in 50% of the mice: >34 days
C3H/HeN mice [1]; [7]
  Results: number of days following initiation of treatment when hair growth appeared in 50% of the mice: >34 days
C3H/HeN mice [1]; Experiment 11
  Induction of anagen (conclusion in words): induced anagen
C3H/HeN mice [1]; Experiment 11, 0.3 w/v %, propylene glycol 30%/ethanol 70%, vehicle 56
  Results: number of days following initiation of treatment when hair growth appeared in 50% of the mice: 25 days
C3H/HeN mice [1]; Experiment 12
  Induction of anagen (conclusion in words): did not induce anagen
C3H/HeN mice [1]; Experiment 12, 1.0 w/v %, propylene glycol 30%/ethanol 70%, vehicle 37
  Results: number of days following initiation of treatment when hair growth appeared in 50% of the mice: 39 days
C3H/HeN mice [1]; Experiment 13
  Induction of anagen (conclusion in words): induced anagen
C3H/HeN mice [1]; Experiment 13, 1.0 w/v %, propylene glycol 30%/ethanol 70%, vehicle 28
  Results: number of days following initiation of treatment when hair growth appeared in 50% of the mice: 14 days
C3H/HeN mice [1]; Experiment 14
  Induction of anagen (conclusion in words): induced anagen
C3H/HeN mice [1]; Experiment 14, 1.0 w/v %, propylene glycol 30%/ethanol 70%, vehicle 29
  Results: number of days following initiation of treatment when hair growth appeared in 50% of the mice: 25 days
C3H/HeN mice [1]; [8]
  Results: number of days following initiation of treatment when hair growth appeared in 50% of the mice: 16 days
C3H/HeN mice [1]; [9]
  Results: number of days following initiation of treatment when hair growth appeared in 50% of the mice: 23 days
C3H/HeN mice [1]; [10]
  Induction of anagen (conclusion in words): induced anagen at both of the concentrations tested
C3H/HeN mice [2]; 0.3 w/v %
  Results: number of days following initiation of treatment when hair growth appeared in 50% of the mice: 21 days
C3H/HeN mice [2]; 1.0 w/v %
  Results: number of days following initiation of treatment when hair growth appeared in 50% of the mice: 21 days
C3H/HeN mice [2]
  Induction of anagen (conclusion in words): exhibited activity at all doses tested in this vehicle

## Cn1nc(O[C@@H]2c3cc(S(=O)(=O)c4ccccc4O)ccc3OC(C)(C)[C@@]2(C)O)ccc1=O [Compound #7]
C3H/HeN mice [1]; [3]
  Results: number of days following initiation of treatment when hair growth appeared in 50% of the mice: >33 days
C3H/HeN mice [1]; [4]
  Results: number of days following initiation of treatment when hair growth appeared in 50% of the mice: >33 days
C3H/HeN mice [1]; [5]
  Results: number of days following initiation of treatment when hair growth appeared in 50% of the mice: >33 days
C3H/HeN mice [1]; [6]
  Results: number of days following initiation of treatment when hair growth appeared in 50% of the mice: >34 days
C3H/HeN mice [1]; Experiment 10, 0.1 w/v %, solvent polyethylene glycol 30 v/v %, ethanol 30 v/v %, transcutanol 40 v/v %, terminated early
  Results: number of days following initiation of treatment when hair growth appeared in 50% of the mice: >34 days
C3H/HeN mice [1]; [7]
  Results: number of days following initiation of treatment when hair growth appeared in 50% of the mice: >34 days
C3H/HeN mice [1]; Experiment 10, 0.3 w/v %, solvent polyethylene glycol 30 v/v %, ethanol 30 v/v %, transcutanol 40 v/v %, terminated early
  Results: number of days following initiation of treatment when hair growth appeared in 50% of the mice: >34 days
C3H/HeN mice [1]; Experiment 15, 0.03 w/v %, propylene glycol 30%/ethanol 70%, vehicle >30
  Results: number of days following initiation of treatment when hair growth appeared in 50% of the mice: >30 days
C3H/HeN mice [1]; [8]
  Results: number of days following initiation of treatment when hair growth appeared in 50% of the mice: >30 days
C3H/HeN mice [1]; [9]
  Results: number of days following initiation of treatment when hair growth appeared in 50% of the mice: >30 days
C3H/HeN mice [1]; [10]
  Induction of anagen (conclusion in words): showed no effect at the time of termination
C3H/HeN mice [2]; 0.3 w/v %
  Results: number of days following initiation of treatment when hair growth appeared in 50% of the mice: 21 days
C3H/HeN mice [2]; 1.0 w/v %
  Results: number of days following initiation of treatment when hair growth appeared in 50% of the mice: 21 days
C3H/HeN mice [2]
  Induction of anagen (conclusion in words): did exhibit activity
